Experiments:
[1] = Net aerosol electric charge of AERx aerosols, measured with a Faraday cup; format: physicochemical
Description: The AERx™ system (as described and disclosed in U.S. Pat. Nos. 5,544,646 and 6,123,068) produces aerosols by extruding the liquid contents of a single dose blister packet (here 45 uL) through an array of micro-drilled holes. The jets formed during the extrusion process are entrained by the patient inhalation air flow. (Schuster J et al., In Drug Delivery to the Lungs VIII, pp14-17, 1997; Schuster J et al., In Respiratory Drug Delivery VI, pp. 83-90, 1998).
For the measurements of electric charge, the air flow was simulated with pressurized house air. A Faraday cup was inserted in the flow path of the aerosol a few centimeters downstream from the point of generation. It comprised a perforated aluminum cartridge filled with a paper filter, which was inserted into and insulated from a grounded metal enclosure, used as a shield from external electromagnetic noise. A coaxial wire connected to the aluminum cartridge was passed through the metal enclosure and connected to a current-voltage converter of the op-amp design (ammeter). The voltage output from the ammeter was acquired as a function of time by a computer together with other information about the extrusion process, such as the position of the piston that pressurizes the blister pack during an extrusion.
The formulations tested in EXAMPLES 1, 2 and 3 were de-ionized water (DI), sterile water for injection USP (WFI), 5 mM and 10 mM sodium chloride in water, and 30 mg/ml sodium cromoglycate (cromolyn) in water.
The region between aerosol generation and the Faraday cup was inspected after each extrusion (“run”), and any residue found was wiped clean. This region was all metallic in the system used here and comprised two separable parts, the so-called “clamp”, in which the packet is held and the aerosol is generated, and the so-called “diffuser”, which is positioned immediately downstream from the clamp. This diffuser was removed in some of the Examples herein discussed.
A measure of the net electric charge carried by the bolus was obtained from the numerical integral over time of the electric current signals. […]

[2] = Residue between aerosol generation and Faraday cup, inspected after each extrusion; format: physicochemical; settings: EXAMPLE 1, diffuser on; 30 mg/ml in water; compared with DI water
From the text: The region between aerosol generation and the Faraday cup was inspected after each extrusion (“run”), and any residue found was wiped clean. This region was all metallic in the system used here and comprised two separable parts, the so-called “clamp”, in which the packet is held and the aerosol is generated, and the so-called “diffuser”, which is positioned immediately downstream from the clamp. This diffuser was removed in some of the Examples herein discussed. […] Several runs carried out with a “dummy” packet that contained no liquid (labeled “no article” by the “X” in FIG. 1) gave rise to no measurable levels of charge. […] The difference in residue is another indication of high charging.

[3] = EXAMPLE 2, diffuser not present, solutions in water (5 and 10 mM NaCl; 30 mg/ml cromolyn), compared with WFI, FIG. 2

In the case of [Cl-].[Na+] [NaCl, sodium chloride], the net aerosol charge [1, 3] is reported as “much lower charge than water for injection”.
For O=C(O)c1cc(=O)c2c(OCC(O)COc3cccc4oc(C(=O)O)cc(=O)c34)cccc2o1 [cromolyn, sodium cromoglycate], the “residue in the diffuser” value [2] was “a small fraction of the initial packet contents”, the net aerosol charge ([1]; EXAMPLE 1, diffuser on, 30 mg/ml in water, compared with DI water, FIG. 1) was “significantly reduced charge level” and the net aerosol charge [1, 3] was “much lower charge than water for injection”.

Source: patent US20020127186A1, “Use of electrolytes (lons in solution) to suppress charging of inhalation aerosols” (priority 2000, published 2002)
